The source of these data is patent US20080311233A1, “Naturally Occurring Phenolic Substances Useful as Pesticides” (priority 2004, published 2008).

Data set [1] is described as follows: Solubility / miscibility in water and formulating agents. The data set is classed as physicochemical.
For data set [2] the following is noted: cited from earlier work.

As to `COc1cc(C=O)ccc1O` [Vanillin], the “solubility in polyethylene glycol” value in data set [1] (polyethylene glycol) is given as “considerably soluble”. Further, the “solubility in tetra ethyl ortho silicate” value in data set [1] (tetra ethyl ortho silicate) is given as “considerably soluble”. Besides, the solubility in water in data set [2] (according to the Merck index) was 1 gram in 100 ml water. For the same compound, the solubility in alcohol entry in data set [2] (compared with water, Merck index) is given as “more soluble”.
